In patent publication US20260315763A1, “OLFACTORY DELIVERY OF THERAPEUTIC PEPTIDES” (Rocket Science Health Corp., priority 2023, published 2026):
Entries after “also recorded” stand apart in the source; their conditions may differ.

How the values were obtained:
[1] = Visualizing olfactory cleft delivery with methylene blue (nasal endoscopy); assay type: in vivo, human (healthy participants)
Text: The primary goal of these studies is to visualize delivery to the olfactory cleft (first with technetium-99, and then with methylene blue). The device was tuned to eject the fluid at a specific velocity. This velocity was chosen based on the viscosity of the fluid and the studies in Example 1, to maximize the extent of laminar flow.
Visualizing Olfactory Cleft Delivery with Methylene Blue
Participants: Five healthy participants (ages 19+) with no history of sinonasal symptoms and no evidence of nasal inflammation were recruited for this study. Prior to recruitment of participants study procedures were approved by Providence Health Care research ethics board, (British Columbia, Canada) and conducted under Health Canada Investigational Testing Authorization #314993. All participants were assessed by a licensed otolaryngologist physician to confirm their eligibility. Participants completed two study visits during which a licensed otolaryngologist physician administered 0.1 mL of the visual dye tracer, methylene blue.
Study Design: During the first visit, the methylene blue was administered using the Laminar Fluid Ejection method (1.5 mm cannula; velocity=4.5 m/s). During the second visit, methylene blue was administered using a conventional nasal spray device (Pharma systems Item #10272, UPC: 063636802714). The Pharma systems spray device was used in these experiments because it was the device normally used by the compounding pharmacy for intranasal delivery. It was the device patients and clinicians were used to at this clinic.
Following delivery, the physician used a nasal endoscope to image the deposition of methylene blue to the olfactory cleft at up to five time points (1, 5, 8, 12, and 15 minutes following delivery). From each image, the physician judged whether at least 50% of the methylene blue fluid was delivered to the olfactory cleft. If <50% of the methylene blue was judged to have deposited in the olfactory cleft, imaging was stopped and that session's trial was completed.

[2] = tested on: prefrontal and posterior brain regions; assay: fMRI control analysis: ALFF in spray condition across Blocks 1 and 2; assay type: in vivo, human (participants); conditions: insulin without MucoLox, 80 IU
Text: (§1) Participants: Eight participants (male and female, ages 23-30) were recruited for this study from the New Brunswick area. Participants reported no history of abnormal nasal or sinus symptoms, insulin use, diabetes, metabolic disorder, or any complicating medical conditions, or contraindications for nasal cannulation, MRI or venous blood sampling. Additionally, participants reported no previous diagnosis of SARS-COV-2 with symptoms of anosmia. Study procedures were approved by Horizon Health Network's Human Research Protection Program prior to recruitment of participants.
(§2) Study Design: An open-label 4-arm crossover study design was used to understand the insulin brain effects between the focal deposition (cannula) and the standard nasal mister method. Undiluted solution of 80 IU (0.16 ml) prepared from U500 insulin was delivered to the olfactory region (condition A). Under this condition, 40 IU (0.08 ml) of human insulin was delivered directly by an ENT physician to each nostril. For condition B, undiluted solution containing 15% MucoLox (a thickening agent) and 80 IU (0.16 ml) insulin was delivered to the olfactory region. For condition C, a total of 1.6 ml insulin and sterile water mixture was prepared for Nasal spray delivery. The nasal spray bottle contained 80 IU of U500 insulin mixed with a sterile water solution. […]

[3] = tested on: inferior temporal gyrus; assay: fMRI region of interest analysis: mean ALFF in inferior temporal gyrus; assay type: in vivo, human (participants); conditions: both olfactory delivery and spray conditions; 80 IU; baseline, 15, 60 min
Text: as §1, §2

[4] = tested on: anterior division of the cingulate gyrus; assay: fMRI region of interest analysis: mean ALFF in anterior division of the cingulate gyrus; assay type: in vivo, human (participants); conditions: both olfactory delivery and spray conditions; 80 IU; baseline, 15, 60 min
Text: as §1, §2

[5] = tested on: prefrontal brain activity; assay: Insulin delivery fMRI analysis: ALFF, prefrontal brain activity; assay type: in vivo, human (participants)
Text: In the in-human studies below, the device was tuned to eject the fluid at a specific velocity. This velocity was chosen based on the viscosity of the fluid and the studies described in Example 1, to maximize the extent of laminar flow.
as §1
Study Design: An open-label 4-arm crossover study design was used to understand the insulin brain effects between the focal deposition (cannula) and the standard nasal mister method. Undiluted solution of 80 IU (0.16 ml) prepared from U500 insulin was delivered to the olfactory region (condition A). Under this condition, 40 IU (0.08 ml) of human insulin was delivered directly by an ENT physician to each nostril. For condition B, undiluted solution containing 15% MucoLox (a thickening agent) and 80 IU (0.16 ml) insulin was delivered to the olfactory region. For condition C, a total of 1.6 ml insulin and sterile water mixture was prepared for Nasal spray delivery. The nasal spray bottle contained 80 IU of U500 insulin mixed with a sterile water solution. The spray was delivered over 4 minutes with two puffs per nostril every minute. Condition sequences AC, CA, BC, and CB comprise the 4 arms of the study.
Participants were randomly assigned to one of two blocks. In Block 1, participants were randomly assigned by alternating sequence to one of the A arms (AC or CA). […] In Block 2, participants were randomly assigned by alternating sequence to one of the B arms (BC or CB). Block 2 participants did receive MucoLox in the cannula session. For a given participant, appointments for each condition were scheduled at a minimum of 14 days apart to ensure no carry-over effects from the previous condition.
MRI Acquisition: Magnetic resonance imaging was completed at an imaging clinic in Moncton (Moncton MRI) using standard sequences on a 3T Siemens Skyra, VD13. Anatomical T1-weighted MPRAGE images were acquired for each subject [TR=1900 ms, TE=2.99 ms, Flip Angle=9 degrees, Voxel Size=0.45×0.45×0.9 mm, Dimensions=448×512×160]. Resting state functional T2*-weighted BOLD images [TR=2600 ms, TE=30 ms, Flip Angle=90 degrees, Voxel Size=3×3×3 mm, Dimensions=80×80×45] were acquired for each subject at baseline and again 15 minutes and 60 minutes following intranasal delivery of insulin. Each resting state functional scan consisted of 180 volumes acquired over the course of 7 minutes and 48 seconds.
MRI Preprocessing: MRI data was preprocessed using fMRIPrep. Preprocessing steps of the anatomical images included correction for intensity nonuniformity, skull stripping, segmentation of gray matter, white matter, and cerebrospinal fluid (CSF) masks, and normalization to MNI template space. Preprocessing steps for the functional images included slice time correction, head motion correction (calculation of framewise displacement and 6-degrees of motion parameters and their temporal derivatives), registration to the subjects T1w image, normalization to MNI template space, and spatial smoothing (3 mm FWHM Gaussian kernel).
fMRI Denoising: Functional MRI data were denoised using a standard denoising pipeline implemented in the CONN Toolbox (v 22.a) and SPM (v 12.7). […]

Compound: CN(C)c1ccc2nc3ccc(=[N+](C)C)cc-3sc2c1 [Methylene Blue, methylene blue]
- participants with successful delivery of >50% of the methylene blue to the olfactory cleft ([1]; Laminar Fluid Ejection method, 0.1 mL): Four of the five participants
- delivery of at least 50% of the dye to the olfactory cleft ([1]; conventional nasal spray, each of the five participants): failed to deliver at least 50% of the dye to the olfactory cleft
- Olfactory Residence Time ([1]; participant 2.01, LFE Method, 0.1 mL, 1 attempt): 15 min
- Olfactory Residence Time ([1]; participant 2.01, Nasal Spray, 0.1 mL, 1 attempt): 0 min
- Olfactory Residence Time ([1]; participant 2.02, LFE Method, 0.1 mL, 2 attempts): 8 min
- Olfactory Residence Time ([1]; participant 2.02, Nasal Spray, 0.1 mL, 1 attempt): 0 min
- Olfactory Residence Time ([1]; participant 2.03, LFE Method, 0.1 mL, 1 attempt): 5 min
- Olfactory Residence Time ([1]; participant 2.03, Nasal Spray, 0.1 mL, 1 attempt): 0 min
- Olfactory Residence Time ([1]; participant 2.04, LFE Method, 0.1 mL, 5 attempts): 0 min
- Olfactory Residence Time ([1]; participant 2.04, Nasal Spray, 0.1 mL, 1 attempt): 0 min
- Olfactory Residence Time ([1]; participant 2.05, LFE Method, 0.1 mL, 1 attempt): 1 min
- Olfactory Residence Time ([1]; participant 2.05, Nasal Spray, 0.1 mL, 1 attempt): 0 min

Compound: insulin: Undiluted solution of 80 IU (0.16 ml) prepared from U500 insulin; spray: 80 IU of U500 insulin mixed with a sterile water solution
- brain activity, Block 2 compared to Block 1 participants ([2]; 15 minutes): increased brain activity in prefrontal cortex and reduced brain activity in posterior brain regions
- brain activity, Block 2 compared to Block 1 participants ([2]; 60 minutes): decreased brain activity in select prefrontal and posterior regions
- ALFF over time, inferior temporal gyrus [3]: increased over time; also recorded: increase in ALFF for both conditions
- ALFF over time, anterior division of the cingulate gyrus [4]: decreased over time; also recorded: decrease in ALFF in both the olfactory delivery and spray conditions
- prefrontal brain activity compared to baseline ([5]; 80 IU intranasal insulin, scans after receiving insulin (15 and 60 minutes)): decreased prefrontal brain activity compared to baseline scans
- decrease in prefrontal brain activity, olfactory delivery device compared to spray mister ([5]; 80 IU, olfactory delivery device vs traditional spray mister): larger and longer-lasting decrease in prefrontal brain activity
- prefrontal deactivation, olfactory delivery device compared to spray device ([5]; Block 1 (insulin without MucoLox), 80 IU): greater and more sustained
- reduction in prefrontal brain activity, olfactory delivery compared to spray ([5]; Block 1, 80 IU, 60 minutes): even more intense in the olfactory delivery condition
- change in prefrontal brain activity compared to baseline ([5]; Block 1, both spray and olfactory delivery device, 80 IU, 15 minutes): reduction in brain activity in prefrontal regions
- change in prefrontal brain activity compared to baseline ([5]; Block 1, olfactory delivery device, 80 IU, 15 minutes, compared to insulin with MucoLox (Block 2)): this reduction is greater in the absence of MucoLox
- change in prefrontal brain activity compared to baseline ([5]; Block 2, spray mister, 80 IU, 15 minutes): small decrease of prefrontal brain activity
- change in prefrontal brain activity compared to baseline ([5]; Block 2, spray mister, 80 IU, 60 minutes): remained deactivated
- reduction in prefrontal brain activity, spray condition compared to olfactory delivery with MucoLox ([5]; Block 2, spray, 80 IU, 60 minutes): more intense in the spray condition
- duration of reduction of brain activity after delivery ([5]; delivery of insulin using the method disclosed (olfactory delivery)): at least 60 minutes
- deactivation of the prefrontal cortex, olfactory delivery device compared to spray mister ([5]; intranasal delivery of insulin, 80 IU, overall conclusion): deactivation of the prefrontal cortex to a greater degree
- deactivation of prefrontal cortex, insulin alone compared to insulin with MucoLox ([5]; olfactory delivery device, 80 IU): greater, longer lasting deactivation of prefrontal cortex
- reduction in prefrontal brain activity, Block 1 compared to Block 2 (MucoLox) ([5]; olfactory delivery device, 80 IU, 60 minutes): more intense in Block 1 participants who did not receive MucoLox
